Assay results: patent publication US20030068808A1, “Methods for generating antibiotic resistant microbes and novel antibiotics” (priority 2001, published 2003)

Columns and labels:
Type in all cases: cell-based
[1] = test system: bacterial cells expressing pT7PMS134/V5; assay: Overnight growth in antibiotic, MMR defective bacteria expressing PMS2-134; conditions: overnight at 37° C., 10^7 cells in 5 ml LB broth plus antibiotic at 0.5X MIC
Procedure: (§1) Titration analysis found the following amounts to be effective in inhibiting bacterial growth in the presence of various compounds.
(§2) The next day, cultures were analyzed for cell growth in the presence or absence of antibiotics.

[2] = test system: bacterial cells expressing the vector (pT7Ea); assay: Overnight growth in antibiotic, vector control bacteria; conditions: overnight at 37° C., 10^7 cells in 5 ml LB broth plus antibiotic at 0.5X MIC
Procedure: as §1, §2

[3] = test system: BL21 cells; assay: Half minimum inhibitory concentrations (MIC) on BL21 cells, titration analysis; conditions: half minimum inhibitory concentration on BL21 cells

SMILES | Cell # (X10^9) (pT7PMS134V5) [1] | Cell # (pT7Ea) [2] | 0.5X MIC [3] [µg/mL]
CN(C)[C@@H]1C(O)=C(C(N)=O)C(=O)[C@@]2(O)C(O)=C3C(=O)c4c(O)cccc4[C@@](C)(O)[C@H]3C[C@@H]12 [Tetracycline] | 1.10 X10^9 | 0 | 
CN[C@H](CC(C)C)C(=O)N[C@H]1C(=O)N[C@@H](CC(N)=O)C(=O)N[C@H]2C(=O)N[C@H]3C(=O)N[C@H](C(=O)N[C@H](C(=O)O)c4cc(O)cc(O)c4-c4cc3ccc4O)[C@H](O)c3ccc(c(Cl)c3)Oc3cc2cc(c3O[C@@H]2O[C@H](CO)[C@@H](O)[C@H](O)[C@H]2O[C@H]2C[C@](C)(N)[C@H](O)[C@H](C)O2)Oc2ccc(cc2Cl)[C@H]1O [Vancomycin] |  | 0 | 250.0
CCn1cc(C(=O)O)c(=O)c2ccc(C)nc21 [Nalidixic Acid] | 0.97 X10^9 | 0 | 7.10
CCn1cc(C(=O)O)c(=O)c2cc(F)c(N3CCNCC3)cc21 [Norfloxacin] | 1.40 X10^9 | 0 | 0.13
CC1COc2c(N3CCN(C)CC3)c(F)cc3c(=O)c(C(=O)O)cn1c23 (stereo not shown) [Ofloxacin] | 1.20 X10^9 | 0 | 0.13
